Values of other authors, collected in patent US8524772B2, “Controlled release of N-acetylcysteine (NAC) for reduction of systemic and/or vascular inflammation” (Tiara Pharmaceuticals, Inc., priority 2008, dated 2013).

Legend:
LDL = settings: in vitro
[1] = test system: lipid loaded macrophages (foam cells)

**Q.** For `CC(=O)NC(CS)C(=O)O` (stereo not drawn) [NAC, 2-acetamido-3-sulfanylpropanoic acid], which “oxidative modification of LDL” value (LDL) is on record?
**A.** Its value is “inhibited”.

**Q.** And the “secondary oxidation of LDL by previously oxidized LDL” value (LDL)?
**A.** The value was “markedly inhibited”.

**Q.** And the “ability of foam cells to degrade vascular matrix” value [1]?
**A.** The value was “reduce”.
